Assay results reported in US9765105B2, “Macrolide compound” (Pulike Biological Engineering, Inc., priority 2013, dated 2017).

Columns and labels:
Experiment in all cases: in vitro susceptibility, MIC by mini broth dilution
Assay type in all cases: cell-based
[1] = test system: Pasteurella multocida CVCC399; details: strain CVCC399
Procedure, shortened: (§1)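 Bacteria were revived from −20° C stocks and streaked twice on solid medium, each time grown 20 h at 35° C. Compounds were double-diluted in DMSO across 11 wells and tested in two parallel rows. The bacterial suspension was diluted 1:200 with liquid medium before MIC determination by mini broth dilution.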

[2] = test system: Actinobacillus pleuropneumoniae CVCC262; details: strain CVCC262
Procedure, shortened: as §1

[3] = test system: Streptococcus equines CVCC556; details: strain CVCC556
Procedure, shortened: as §1

Haemophilus parasuis = test system: Haemophilus parasuis
Procedure, shortened: as §1

[4] = test system: Staphylococcus aureus CVCC26003; details: strain CVCC26003
Procedure, shortened: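 MICs were determined by mini broth dilution under NCCLS standards in CAMHB, using revived S. aureus CVCC26003 subcultured 20 h at 35° C. Compounds were two-fold serially diluted in DMSO across 11 wells, with duplicate rows. Bacterial suspension was diluted 1:200 in medium before inoculation.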

| SMILES | MIC values, Pasteurella multocida CVCC399 [1] [ug/mi] | MIC values, Actinobacillus pleuropneumoniae CVCC262 [2] [ug/mi] | MIC values, Streptococcus equines CVCC556 [3] | MIC values, Haemophilus parasuis (Haemophilus parasuis) | MIC values, Staphylococcus aureus CVCC26003 [4] |
| --- | --- | --- | --- | --- | --- |
| CC[C@H]1OC(=O)[C@H](C)[C@@H](O[C@H]2C[C@@](C)(OC)[C@](O)(C=NNc3ccc(F)cc3)[C@H](C)O2)[C@H](C)[C@@H](O[C@@H]2O[C@H](C)C[C@H](N(C)C)[C@H]2O)[C@](C)(O)C[C@@H](C)NC[C@H](C)[C@@H](O)[C@]1(C)O [syzx-81, (2R,3S,4R,5S,8R,10R,11R,12S,13S,14R)-13-[(2,6-dideoxy-3-C-methyl-3-O-methyl-4-C-[(4-fluoro-phenylhydrazono)-methyl]-α-L-ribopyranosyl)oxy]-2-ethyl-3,4,10-trihydroxy-3,5,8,10,12,14-hexamethyl-11-[[3,4,6-trideoxy-3-(dimethylamino)-β-D-xylo-hexopyranosy]oxy]-1-oxa-7-azacyclopentadecan-15-one] | 0.25 | 2 | ≦0.25 ug/mi | ≦0.25 ug/mi | ≦0.25 ug/mi |
| CCCCNC[C@]1(O)[C@H](C)O[C@@H](O[C@H]2[C@H](C)[C@@H](O[C@@H]3O[C@H](C)C[C@H](N(C)C)[C@H]3O)[C@](C)(O)C[C@@H](C)N(CCC)C[C@H](C)[C@@H](O)[C@](C)(O)[C@@H](CC)OC(=O)[C@@H]2C)C[C@@]1(C)OC [syzx-102] | 0.5 | 0.25 | 0.25 ug/mi | 0.25 ug/mi | 0.25 ug/mi |
| CCCN1CC(C)C(O)C(C)(O)C(CC)OC(=O)C(C)C(OC2CC(C)(OC)C(O)(CNc3n[nH]c(S)n3)C(C)O2)C(C)C(OC2OC(C)CC(N(C)C)C2O)C(C)(O)CC1C (stereo not shown) [syzx-210] | 4 | 0.5 | 0.25 ug/mi | 0.5 ug/mi | 2 ug/mi |
| CCCN1C[C@H](C)[C@@H](O)[C@](C)(O)[C@@H](CC)OC(=O)[C@H](C)[C@@H](O[C@H]2C[C@@](C)(OC)[C@](O)(CNC(=O)C(F)(F)F)[C@H](C)O2)[C@H](C)[C@@H](O[C@@H]2O[C@H](C)C[C@H](N(C)C)[C@H]2O)[C@](C)(O)C[C@H]1C [syzx-215] | 0.5 | 0.25 | 0.25 ug/mi | 0.25 ug/mi | 0.25 ug/mi |
| CCCN1C[C@H](C)[C@@H](O)[C@](C)(O)[C@@H](CC)OC(=O)[C@H](C)[C@@H](O[C@H]2C[C@@](C)(OC)[C@](O)(CNc3nc(Cl)cc(Cl)n3)[C@H](C)O2)[C@H](C)[C@@H](O[C@@H]2O[C@H](C)C[C@H](N(C)C)[C@H]2O)[C@](C)(O)C[C@H]1C [syzx-202] | 2 | 2 | 0.25 ug/mi | 4 ug/mi | 2 ug/mi |
| CCCN1C[C@H](C)[C@@H](O)[C@](C)(O)[C@@H](CC)OC(=O)[C@H](C)[C@@H](O[C@H]2C[C@@](C)(OC)[C@](O)(CNCc3ccccc3F)[C@H](C)O2)[C@H](C)[C@@H](O[C@@H]2O[C@H](C)C[C@H](N(C)C)[C@H]2O)[C@](C)(O)C[C@H]1C [syzx-192] | 4 | 4 | 0.5 ug/mi | 4 ug/mi | 4 ug/mi |
| CCCN1C[C@H](C)[C@@H](O)[C@](C)(O)[C@@H](CC)OC(=O)[C@H](C)[C@@H](O[C@H]2C[C@@](C)(OC)[C@](O)(CNc3ccc(OC)cc3)[C@H](C)O2)[C@H](C)[C@@H](O[C@@H]2O[C@H](C)C[C@H](N(C)C)[C@H]2O)[C@](C)(O)C[C@H]1C [syzx-183] | 2 | 0.5 | 0.25 ug/mi | 0.25 ug/mi | 0.25 ug/mi |
| CCCN1C[C@H](C)[C@@H](O)[C@](C)(O)[C@@H](CC)OC(=O)[C@H](C)[C@@H](O[C@H]2C[C@@](C)(OC)[C@](O)(CNc3cc(F)ccc3[N+](=O)[O-])[C@H](C)O2)[C@H](C)[C@@H](O[C@@H]2O[C@H](C)C[C@H](N(C)C)[C@H]2O)[C@](C)(O)C[C@H]1C [syzx-226] | 8 | 4 | 0.25 ug/mi | 4 ug/mi | 2 ug/mi |
| CC[C@H]1OC(=O)[C@H](C)[C@@H](O[C@H]2C[C@@](C)(OC)[C@](O)(CNc3ccc(OC)cc3)[C@H](C)O2)[C@H](C)[C@@H](O[C@@H]2O[C@H](C)C[C@H](N(C)C)[C@H]2O)[C@](C)(O)C[C@@H](C)NC[C@H](C)[C@@H](O)[C@]1(C)O [syzx-83, (2R,3S,4R,5S,8R,10R,11R,12S,13S,14R)-13-[(2,6-dideoxy-3-C-methyl-3-O-methyl-4-C-[(p-methoxyphenyl-amino)-methyl]-α-L-ribopyranosyl)oxy]-2-ethyl-3,4,10-trihydroxy-3,5,8,10,12,14-hexamethyl-11-[[3,4,6-trideoxy-3-(dimethylamino)-β-D-xylo-hexopyranosy]oxy]-1-oxa-7-azacyclopentadecan-15-one] | 0.25 | 2 | 0.5 ug/mi | 0.25 ug/mi | 0.5 ug/mi |
| CCCN1C[C@H](C)[C@@H](O)[C@](C)(O)[C@@H](CC)OC(=O)[C@H](C)[C@@H](O[C@H]2C[C@@](C)(OC)[C@](O)(CNCc3cc(F)cc(F)c3)[C@H](C)O2)[C@H](C)[C@@H](O[C@@H]2O[C@H](C)C[C@H](N(C)C)[C@H]2O)[C@](C)(O)C[C@H]1C [syzx-155] | 0.5 | 0.25 | 0.25 ug/mi | 0.25 ug/mi | 0.25 ug/mi |

The remaining lines, values ahead:

| MIC values, Pasteurella multocida CVCC399 [1] [ug/mi] | MIC values, Actinobacillus pleuropneumoniae CVCC262 [2] [ug/mi] | MIC values, Streptococcus equines CVCC556 [3] | MIC values, Haemophilus parasuis (Haemophilus parasuis) | MIC values, Staphylococcus aureus CVCC26003 [4] | SMILES |
| --- | --- | --- | --- | --- | --- |
| 2 | 0.5 | 0.25 ug/mi | 0.5 ug/mi | 1 ug/mi | CC[C@H]1OC(=O)[C@H](C)[C@@H](O[C@H]2C[C@@](C)(OC)[C@](O)(CNCc3ccccc3F)[C@H](C)O2)[C@H](C)[C@@H](O[C@@H]2O[C@H](C)C[C@H](N(C)C)[C@H]2O)[C@](C)(O)C[C@@H](C)NC[C@H](C)[C@@H](O)[C@]1(C)O [syzx-92, (2R,3S,4R,5S,8R,10R,11R,12S,13S,14R)-13-[(2,6-dideoxy-3-C-methyl-3-O-methyl-4-C-[(2-fluorobenzyl-amino)-methyl]-α-L-ribopyranosyl)oxy]-2-ethyl-3,4,10-trihydroxy-3,5,10,12,14-hexamethyl-11-[[3,4,6-trideoxy-3-(dimethylamino)-β-D-xylo-hexopyranosy]oxy]-1-oxa-7-azacyclopentadecan-15-one] |
| 0.5 | 4 | ≦0.25 ug/mi | ≦0.25 ug/mi | 0.5 ug/mi | CC[C@H]1OC(=O)[C@H](C)[C@@H](O[C@H]2C[C@@](C)(OC)[C@](O)(CNCc3ccccc3OC)[C@H](C)O2)[C@H](C)[C@@H](O[C@@H]2O[C@H](C)C[C@H](N(C)C)[C@H]2O)[C@](C)(O)C[C@@H](C)NC[C@H](C)[C@@H](O)[C@]1(C)O [syzx-27] |
| 0.25 | 0.5 | ≦0.25 ug/mi | ≦0.25 ug/mi | ≦0.25 ug/mi | CC[C@H]1OC(=O)[C@H](C)[C@@H](O[C@H]2C[C@@](C)(OC)[C@](O)(CNCc3ccc(F)cc3)[C@H](C)O2)[C@H](C)[C@@H](O[C@@H]2O[C@H](C)C[C@H](N(C)C)[C@H]2O)[C@](C)(O)C[C@@H](C)NC[C@H](C)[C@@H](O)[C@]1(C)O [syzx-8, (2R,3S,4R,5S,8R,10R,11R,12S,13S,14R)-13-[(2,6-dideoxy-3-C-methyl-3-O-methyl-4-C-[(4-fluorobenzylamino)methyl]-α-L-ribopyranosyl)oxy]-2-ethyl-3,4,10-trihydroxy-3,5,8,10,12,14-hexamethyl-11-[[3,4,6-trideoxy-3-(dimethylamino)-β-D-xylo-hexopyranosy]oxy]-1-oxa-7-azacyclopentadecan-15-one] |
| 1 | 16 | ≦0.25 ug/mi | ≦0.25 ug/mi | 0.5 ug/mi | CC[C@H]1OC(=O)[C@H](C)[C@@H](O[C@H]2C[C@@](C)(OC)[C@](O)(CNOCc3ccccc3)[C@H](C)O2)[C@H](C)[C@@H](O[C@@H]2O[C@H](C)C[C@H](N(C)C)[C@H]2O)[C@](C)(O)C[C@@H](C)NC[C@H](C)[C@@H](O)[C@]1(C)O [syzx-82, (2R,3S,4R,5S,8R,10R,11R,12S,13S,14R)-13-[(2,6-dideoxy-3-C-methyl-3-O-methyl-4-C-[(benzyloxy-amino)-methyl]-α-L-ribopyranosyl)oxy]-2-ethyl-3,4,10-trihydroxy-3,5,8,10,12,14-hexamethyl-11-[[3,4,6-trideoxy-3-(dimethylamino)-β-D-xylo-hexopyranosy]oxy]-1-oxa-7-azacyclopentadecan-15-one] |
